Paper PMC12486805, “Preclinical evaluation of tridecaptin M: in vitro and in vivo efficacy against colistin-resistant Gram-negative bacterial pathogens and pharmacokinetics” (Antimicrobial Agents and Chemotherapy, 2025)
In brackets after ≈: the same amount, converted by molar mass. Marks after values point to notes of the source that are not given here. Where a SMILES comes first, the peptide text is derived from it. [ ]: non-standard residue; d: D form. The star is where a group is joined. d(aIle) = CC[C@H](C)[C@@H](N)C(=O)O; X1 = CC[C@H](C)CCCCC(=O)*; dDab = NCC[C@@H](N)C(=O)O; Dab = NCC[C@H](N)C(=O)O

Experiments:
[1] = biological target: CYP3A4 (Homo sapiens, UniProt P08684); experiment: CYP inhibition assay, recombinant isoform, fluorescence; assay type: biochemical
Sequence of CYP3A4 (P08684 whole entry, canonical isoform): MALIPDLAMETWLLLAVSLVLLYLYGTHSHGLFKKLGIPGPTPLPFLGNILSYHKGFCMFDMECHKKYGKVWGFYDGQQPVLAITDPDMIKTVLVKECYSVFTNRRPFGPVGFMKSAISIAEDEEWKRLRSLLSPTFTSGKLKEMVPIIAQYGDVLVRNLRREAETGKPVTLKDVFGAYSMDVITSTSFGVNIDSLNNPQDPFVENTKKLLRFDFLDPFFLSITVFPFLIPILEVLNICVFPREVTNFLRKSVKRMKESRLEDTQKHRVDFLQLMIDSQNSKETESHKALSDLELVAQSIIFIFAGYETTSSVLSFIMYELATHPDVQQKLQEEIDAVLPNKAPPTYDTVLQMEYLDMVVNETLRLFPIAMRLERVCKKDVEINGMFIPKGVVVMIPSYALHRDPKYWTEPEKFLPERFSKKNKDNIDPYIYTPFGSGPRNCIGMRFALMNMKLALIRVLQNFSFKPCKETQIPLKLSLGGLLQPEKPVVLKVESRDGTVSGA
Experimental: (§1) The CYP inhibition assay was performed for test/control inhibitor items in duplicates using a 96-well fluorescence plate. An example of the preparation of CYP inhibition is given below in Table 8.
(§2) The plate with CYP master premix with test/control was incubated to allow the test/control samples to interact with CYP enzyme for 10 ± 1 min at 25°C under shaking conditions (400 rpm) using Thermomixer. The assay was initiated by adding 10 µL of a substrate and NADP^+ mixture to all wells, including a vehicle control and an assay blank. […] After incubation, the reaction was quenched by adding 50 µL of stop reagent (0.5 M Tris base) to each well.

[2] = biological target: CYP2D6 (Homo sapiens, UniProt P10635); experiment: as above; assay type: biochemical
Sequence of CYP2D6 (P10635 whole entry): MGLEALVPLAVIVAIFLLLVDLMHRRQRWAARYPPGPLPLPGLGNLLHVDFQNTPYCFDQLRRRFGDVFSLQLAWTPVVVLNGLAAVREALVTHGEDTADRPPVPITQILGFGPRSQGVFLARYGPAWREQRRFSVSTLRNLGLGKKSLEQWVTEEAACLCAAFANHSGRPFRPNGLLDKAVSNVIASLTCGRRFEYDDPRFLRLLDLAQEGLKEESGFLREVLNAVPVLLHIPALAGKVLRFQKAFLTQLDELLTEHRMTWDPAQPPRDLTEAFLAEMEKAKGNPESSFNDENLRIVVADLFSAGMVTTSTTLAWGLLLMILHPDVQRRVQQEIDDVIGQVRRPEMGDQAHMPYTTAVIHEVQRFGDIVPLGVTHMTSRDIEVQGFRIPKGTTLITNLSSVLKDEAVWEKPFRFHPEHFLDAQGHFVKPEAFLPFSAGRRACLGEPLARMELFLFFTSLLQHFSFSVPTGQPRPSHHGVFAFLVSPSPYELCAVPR
Experimental: as §1, §2

[3] = biological target: CYP2C19 (Homo sapiens, UniProt P33261); experiment: as above; assay type: biochemical
Sequence of CYP2C19 (P33261 whole entry): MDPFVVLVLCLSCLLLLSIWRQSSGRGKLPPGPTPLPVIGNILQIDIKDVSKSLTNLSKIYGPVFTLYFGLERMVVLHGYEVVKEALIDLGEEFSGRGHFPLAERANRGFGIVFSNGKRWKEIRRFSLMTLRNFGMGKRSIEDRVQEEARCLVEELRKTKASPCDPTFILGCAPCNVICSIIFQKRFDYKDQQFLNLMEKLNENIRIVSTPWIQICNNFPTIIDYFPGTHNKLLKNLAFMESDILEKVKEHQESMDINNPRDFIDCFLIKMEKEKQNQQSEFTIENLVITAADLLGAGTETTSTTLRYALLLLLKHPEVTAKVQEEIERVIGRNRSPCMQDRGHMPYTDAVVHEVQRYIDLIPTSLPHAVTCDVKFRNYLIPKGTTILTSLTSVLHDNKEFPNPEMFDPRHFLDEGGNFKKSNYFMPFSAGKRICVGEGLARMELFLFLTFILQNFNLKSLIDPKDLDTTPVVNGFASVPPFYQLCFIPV
Experimental: as §1, §2

[4] = system: K. pneumoniae; assay type: cell-based, Klebsiella pneumoniae
Experimental: (§3) The MIC for all isolates was determined using the broth microdilution method. This involved preparing CA-MHB medium and serially diluting antibiotic solutions by a factor of two. The test organism was adjusted to a concentration of ≈5 × 10^5 CFU/mL. In a sterile 96-well microtiter plate, 100 µL of CA-MHB, along with 100 µL of each antibiotic, was added, and serial dilutions were made. A 100 µL suspension of the organism was added to each well and mixed, resulting in a total reaction volume of 200 µL per well. The plate was then incubated at 37°C for 16–18 h. The MIC was identified as the lowest concentration of antibiotic that prevented any visible growth of the organism ([16]).

[5] = in vitro; conditions: mouse, microsomes
Experimental: (§4) For without cofactors, 20 µL of PBS was added instead of pre-incubated cofactors. […] At each specified time, a 100 µL sample was taken, processed through a sample extraction procedure, and submitted for LC-MS/MS analysis ([35]). Half-life (t1/2) of test/control items was determined using the following equation
(§5) where, elimination rate constant (k) = −(slope of linear regression curve).

[6] = system: mammalian cell lines; conditions: cited from earlier work
[7] = Intravenous acute toxicity in mice; assay type: in vivo, Balb/c mice
Experimental: In total, 8–10 week old female Balb/c mice (n = 3) were administered tridecaptin M starting at 15 mg/kg, 25 mg/kg, 50 mg/kg, and 100 mg/kg. […] In this study, we administered 18 mg/kg of colistin to mice intravenously. […] Later, in the second set, intermediate concentrations of 20 mg/kg, 25 mg/kg, 30 mg/kg, 35 mg/kg, and 40 mg/kg doses were also administered to n = 4 mice. In these groups, blood was collected at 24 h post administration or immediately after visible movement stopped (40 mg/kg group), serum was separated and pooled together for each group n = 4, and biochemical serum tests were conducted.

[8] = system: E. coli; assay type: cell-based, Escherichia coli
Experimental: as §3

[9] = in vitro; conditions: human, plasma
Experimental: Plasma protein binding was assessed using the rapid equilibrium dialysis (RED) method, utilizing RED insert devices with a dialysis membrane featuring an 8,000 Dalton molecular weight cutoff for proteins. The test/control items in human, rat, and mouse plasma were prepared at a test concentration of 10 µM using 10 mM DMSO stocks, and the samples were added to the plasma chamber of the RED insert. The device was sealed with tape and incubated in a thermomixer at 37°C with shaking at 300 rpm for 4 h. Following incubation, a 50 µL aliquot of plasma and buffer was collected from each insert and diluted with an equal volume of the opposite matrix to mitigate matrix effects. The samples were quantified using LC-MS/MS analysis and were tested in duplicates.

[10] = in vitro; conditions: rat, microsomes
Experimental: as §4, §5

[11] = rat liver microsomes
Experimental: as §4, §5

[12] = in vitro; conditions: human, microsomes, pH 7.4
Experimental: as §4, §5

[13] = 40 /kg i.v., at death within 2 h

## CC[C@H](C)CCCCC(=O)NCC(=O)N[C@H](CCN)C(=O)NCC(=O)N[C@H](CO)C(=O)N[C@H](Cc1c[nH]c2ccccc12)C(=O)N[C@@H](CO)C(=O)N[C@@H](CCN)C(=O)N[C@H](CCN)C(=O)N[C@H](C(=O)N[C@@H](CCC(=O)O)C(=O)N[C@H](C(=O)N[C@@H](C(=O)N[C@@H](CO)C(=O)O)[C@@H](C)CC)[C@@H](C)CC)[C@@H](C)CC [Tridecaptin M, tridecaptin M] (X1-G[dDab]G[dS][dW]S[Dab][dDab]IEI[d(aIle)]S-OH)
[1]
  IC50: > 30 µM
[1]; human
  inhibition at 25 min, 0.01 µM: < 0%
  inhibition at 25 min, 0.03 µM: < 0%
  inhibition at 25 min, 0.1 µM: < 0%
  inhibition at 25 min, 0.3 µM: < 0%
  inhibition at 25 min, 1 µM: 3.77%
  inhibition at 25 min, 3 µM: 9%
  inhibition at 25 min, 10 µM: 28%
  inhibition at 25 min, 30 µM: 26.6%
[2]
  IC50: > 30 µM
[2]; human
  inhibition at 25 min, 0.01 µM: < 0%
  inhibition at 25 min, 0.03 µM: < 0%
  inhibition at 25 min, 0.1 µM: < 0%
  inhibition at 25 min, 0.3 µM: < 0%
  inhibition at 25 min, 1 µM: < 0%
  inhibition at 25 min, 3 µM: 1.28%
  inhibition at 25 min, 10 µM: 10.9%
  inhibition at 25 min, 30 µM: 13.1%
[3]
  IC50: > 30 µM
[3]; human
  inhibition at 25 min, 0.01 µM: < 0%
  inhibition at 25 min, 0.03 µM: < 0%
  inhibition at 25 min, 0.1 µM: < 0%
  inhibition at 25 min, 0.3 µM: < 0%
  inhibition at 25 min, 1 µM: < 0%
  inhibition at 25 min, 3 µM: 0.13%
  inhibition at 25 min, 10 µM: 5.67%
  inhibition at 25 min, 30 µM: 11.7%
[4]
  MIC: 4 µg/mL (≈ 2.69 µM)
  MIC90: 8 µg/mL (≈ 5.37 µM)
  MIC range: 2 to 8 µg/mL
  MIC values: 2 to 8 µg/mL
[5]; pH 7.4
  half-life: > 2 h
  remaining at 0.25 h: 82.4%
  remaining at 0.5 h: 83.8%
  remaining at 1 h: 88.1%
  remaining at 2 h: 74.7%
[5]; pH 7.4, CL, mouse liver microsomes
  microsomal CLint: < 11 µL/min/mg
[6]
  cytotoxicity: non-cytotoxic
[7]; 20 mg/kg i.v., 24 h
  Amylase (pooled serum): 3800 U/L
  BUN (pooled serum): 96 mg%
  CPK (pooled serum): 448 U/L
  CPK_MB (pooled serum): 420 U/L
  Glucose (pooled serum): 344 mg/dL
  LDH (pooled serum): 2120 U/L
  Lipase (pooled serum): 1016 U/L
  SGOT (pooled serum): 244 Units/L
  SGPT (pooled serum): 68 Units/L
[7]; 25 mg/kg or less i.v.
  outcome of i.v. administration: no visible signs of toxicity or mortality
[7]; 30 mg/kg i.v.
  clinical signs: abnormal motor behavior, including dragging of limbs
  survival time post-administration: 6 to 10 h
[7]; 40 mg/kg i.v.
  time to mortality: ≤ 2 h
[7]; 50 mg/kg i.v.
  outcome of i.v. administration: resulted in mortality
[7]; 100 mg/kg i.v.
  outcome of i.v. administration: immediately lethal
[7]; 25 /kg i.v., 24 h
  Amylase (pooled serum): 5144 U/L
  BUN (pooled serum): 112 mg%
  CPK (pooled serum): 712 U/L
  CPK_MB (pooled serum): 952 U/L
  Glucose (pooled serum): 248 mg/dL
  LDH (pooled serum): 3896 U/L
  Lipase (pooled serum): 972 U/L
  SGOT (pooled serum): 872^b Units/L
  SGPT (pooled serum): 208 Units/L
[7]; [13]
  Amylase (pooled serum): 1560 U/L
  BUN (pooled serum): 24 mg%
  CPK (pooled serum): 24,472 U/L
  CPK_MB (pooled serum): 1408 U/L
  Glucose (pooled serum): 152 mg/dL
  LDH (pooled serum): 3280 U/L
  Lipase (pooled serum): 368 U/L
  SGOT (pooled serum): 784 Units/L
  SGPT (pooled serum): 88 Units/L
[7]; i.v. administration
  histopathology of liver, kidney, heart and brain vs control: no significant morphological alterations
[7]; intravenous administration
  dose at which acute toxicity is seen: ≥ 30 mg/kg
[8]
  MIC: 4 µg/mL (≈ 2.69 µM)
  MIC50: 4 µg/mL (≈ 2.69 µM)
  MIC range: 1 to 8 µg/mL
  MIC values: 2 to 8 µg/mL
[9]
  fraction unbound at 4 h, 10 µM: 0.227
[10]; pH 7.4
  half-life: > 2 h
  remaining at 0.25 h: 86.4%
  remaining at 0.5 h: 76.5%
  remaining at 1 h: 70.1%
  remaining at 2 h: 58.8%
[10]; pH 7.4, CL, rat liver microsomes
  microsomal CLint: < 11 µL/min/mg
[11]
  CL: <11.55 µL/min/mg
[12]
  half-life: 1.31 h
  microsomal CLint: 17.6 µL/min/mg
  remaining at 0.25 h: 58%
  remaining at 0.5 h: 50.2%
  remaining at 1 h: 53.7%
  remaining at 2 h: 48.4%
